We go through 28 molecules from patent US12358886B2, “Heterocyclic compounds for use in the treatment of cancer” (Artios Pharma Limited, priority 2019, dated 2025).

As usually defined, the IC50 is the concentration that gives 50% inhibition.

Polθ protein (amino acids 2-2590), sequence (O75417 2-2590): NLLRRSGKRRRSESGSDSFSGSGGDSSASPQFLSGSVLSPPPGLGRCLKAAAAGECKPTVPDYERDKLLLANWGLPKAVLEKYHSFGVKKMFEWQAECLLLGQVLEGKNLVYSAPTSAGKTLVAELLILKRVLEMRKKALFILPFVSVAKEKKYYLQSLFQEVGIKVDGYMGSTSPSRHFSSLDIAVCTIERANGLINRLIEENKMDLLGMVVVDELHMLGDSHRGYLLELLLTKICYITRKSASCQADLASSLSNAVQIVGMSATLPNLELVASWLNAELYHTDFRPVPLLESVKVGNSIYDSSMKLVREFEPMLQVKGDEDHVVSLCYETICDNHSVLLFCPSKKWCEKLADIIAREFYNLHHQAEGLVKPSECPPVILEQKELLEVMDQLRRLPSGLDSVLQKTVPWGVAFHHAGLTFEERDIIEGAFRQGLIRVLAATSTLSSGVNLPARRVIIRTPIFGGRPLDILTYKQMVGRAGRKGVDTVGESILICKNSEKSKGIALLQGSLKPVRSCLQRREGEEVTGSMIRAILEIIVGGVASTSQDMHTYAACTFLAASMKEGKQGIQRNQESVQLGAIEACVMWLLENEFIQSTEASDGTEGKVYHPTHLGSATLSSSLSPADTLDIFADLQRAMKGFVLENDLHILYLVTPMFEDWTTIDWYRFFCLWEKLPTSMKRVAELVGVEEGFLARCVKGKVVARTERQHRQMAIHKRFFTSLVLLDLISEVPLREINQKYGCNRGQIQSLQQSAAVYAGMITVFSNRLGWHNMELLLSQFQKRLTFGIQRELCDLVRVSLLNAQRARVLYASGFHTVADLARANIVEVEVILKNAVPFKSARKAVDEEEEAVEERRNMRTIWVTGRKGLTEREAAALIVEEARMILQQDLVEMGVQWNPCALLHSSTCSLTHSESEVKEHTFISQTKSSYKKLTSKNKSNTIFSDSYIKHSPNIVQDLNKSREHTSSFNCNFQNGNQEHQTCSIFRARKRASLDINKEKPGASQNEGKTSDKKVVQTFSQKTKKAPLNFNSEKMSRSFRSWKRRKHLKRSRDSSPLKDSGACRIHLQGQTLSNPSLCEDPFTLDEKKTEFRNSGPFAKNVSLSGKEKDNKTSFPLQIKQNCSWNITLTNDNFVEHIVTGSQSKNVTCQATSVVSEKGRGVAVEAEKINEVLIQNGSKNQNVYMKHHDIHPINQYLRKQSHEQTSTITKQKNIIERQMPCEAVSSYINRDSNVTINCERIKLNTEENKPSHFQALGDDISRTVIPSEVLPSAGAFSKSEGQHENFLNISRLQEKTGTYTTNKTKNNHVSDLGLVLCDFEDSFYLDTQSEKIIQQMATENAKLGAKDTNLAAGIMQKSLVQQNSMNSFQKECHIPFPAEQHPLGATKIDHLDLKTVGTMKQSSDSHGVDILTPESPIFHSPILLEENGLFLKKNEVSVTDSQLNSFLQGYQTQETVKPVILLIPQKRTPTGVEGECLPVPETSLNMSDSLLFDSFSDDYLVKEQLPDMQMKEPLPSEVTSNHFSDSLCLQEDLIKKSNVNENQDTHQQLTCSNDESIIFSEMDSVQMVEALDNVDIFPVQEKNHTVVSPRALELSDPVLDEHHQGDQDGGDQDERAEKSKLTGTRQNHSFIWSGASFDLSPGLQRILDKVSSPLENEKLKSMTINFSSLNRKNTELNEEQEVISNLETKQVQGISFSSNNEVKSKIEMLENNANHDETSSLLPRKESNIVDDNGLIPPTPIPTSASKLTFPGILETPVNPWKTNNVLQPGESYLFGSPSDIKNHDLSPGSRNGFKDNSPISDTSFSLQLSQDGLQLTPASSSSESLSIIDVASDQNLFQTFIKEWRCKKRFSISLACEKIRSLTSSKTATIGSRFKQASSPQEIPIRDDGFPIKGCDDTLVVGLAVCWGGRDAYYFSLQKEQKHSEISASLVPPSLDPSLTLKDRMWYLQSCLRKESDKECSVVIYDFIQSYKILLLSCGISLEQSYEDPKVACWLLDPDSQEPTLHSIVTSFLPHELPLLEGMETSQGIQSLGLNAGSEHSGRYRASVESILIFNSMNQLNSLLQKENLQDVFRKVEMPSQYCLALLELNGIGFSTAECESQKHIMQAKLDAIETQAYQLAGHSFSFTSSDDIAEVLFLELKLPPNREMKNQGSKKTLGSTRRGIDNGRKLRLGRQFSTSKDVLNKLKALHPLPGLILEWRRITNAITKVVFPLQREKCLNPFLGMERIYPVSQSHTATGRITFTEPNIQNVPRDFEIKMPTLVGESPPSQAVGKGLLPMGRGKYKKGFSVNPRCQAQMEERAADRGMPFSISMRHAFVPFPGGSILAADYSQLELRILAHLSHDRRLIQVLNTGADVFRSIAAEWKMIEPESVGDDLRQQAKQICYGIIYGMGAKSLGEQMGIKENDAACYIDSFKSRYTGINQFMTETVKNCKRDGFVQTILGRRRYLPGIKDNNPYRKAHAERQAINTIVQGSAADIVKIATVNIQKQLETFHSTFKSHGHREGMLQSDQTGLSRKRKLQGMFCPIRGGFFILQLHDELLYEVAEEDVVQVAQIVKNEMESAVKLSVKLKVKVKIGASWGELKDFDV

The first test has as its target Polθ protein (amino acids 2-2590) (Homo sapiens, UniProt O75417). Description: Polθ full length enzyme potency assay (PicoGreen). The conditions noted are these: Polθ IC50 (nM), full length N-His, C-term FLAG tagged Polθ, PicoGreen fluorescence, 12 point concentration response.
As to `Cc1cc(C(F)(F)F)cc(N2C(=O)N(CC(O)CN3CCC(F)C3)C[C@H]2C(=O)N(C)c2ccc(F)c(Cl)c2F)n1` (stereo in doubt) [Example 215, (4S)—N-(3-Chloro-2,4-difluorophenyl)-1-(3-((R)-3-fluoropyrrolidin-1-yl)-2-hydroxy-propyl)-N-methyl-3-(6-methyl-4-(trifluoromethyl)pyridin-2-yl)-2-oxoimidazolidine-4-carboxamide], the IC50 is 8 nM.

On to `Cc1cc(C(F)(F)F)cc(N2C(=O)OC[C@H]2C(=O)N(C)c2ccc(F)c(C)c2)n1` [Example 86, (S)-N-(4-Fluoro-3-methylphenyl)-N-methyl-3-(6-methyl-4-(trifluoromethyl)pyridin-2-yl)-2-oxooxazolidine-4-carboxamide], for which the IC50 came to 9 nM.

In turn, `Cc1cc(C(F)(F)F)cc(N2C(=O)OC[C@H]2C(=O)N(C)c2ccc(C3CC3)c(Cl)c2)n1` [Example 173, (S)—N-(3-Chloro-4-cyclopropylphenyl)-N-methyl-3-(6-methyl-4-(trifluoromethyl)pyridin-2-yl)-2-oxooxazolidine-4-carboxamide] showed an IC50 of 13 nM.

`CCN(C(=O)[C@@H]1COC(=O)N1c1cc(C(C)(F)F)cc(C)n1)c1ccc(F)c(Cl)c1` [Example 125, (S)—N-(3-Chloro-4-fluorophenyl)-3-(4-(1,1-difluoroethyl)-6-methylpyridin-2-yl)-N-ethyl-2-oxooxazolidine-4-carboxamide] registered an IC50 of 261 nM.

`Cc1cccc(N(C)C(=O)[C@@H]2[C@H](O)CCN2c2nc(C)cc(C)c2C#N)c1` [Example 25, (2S,3R)-1-(3-Cyano-4,6-dimethylpyridin-2-yl)-3-hydroxy-N-methyl-N-(m-tolyl)pyrrolidine-2-carboxamide] displayed an IC50 of 32 nM.

The molecule `Cc1cccc(N(C)C(=O)[C@@H]2[C@@H](O)[C@@H](O)CN2c2nc(C)cc(C(F)(F)F)c2C#N)c1` [Example 53, (2S,3R,4S)-1-(3-Cyano-6-methyl-4-(trifluoromethyl)pyridin-2-yl)-3,4-dihydroxy-N-methyl-N-(m-tolyl)pyrrolidine-2-carboxamide] came in with an IC50 of 121 nM.

In turn, `Cc1cc(C(F)(F)F)cc(N2C(=O)N(CCC(=O)N(C)C)C[C@H]2C(=O)N(C)c2ccc(F)c(Cl)c2)n1` [Example 190, (S)—N-(3-Chloro-4-fluorophenyl)-1-(3-(dimethylamino)-3-oxopropyl)-N-methyl-3-(6-methyl-4-(trifluoromethyl)pyridin-2-yl)-2-oxoimidazolidine-4-carboxamide] yielded an IC50 of 13 nM.

Turning to `Cc1cc(C)c(C#N)c(N2C[C@@H](O)C[C@H]2C(=O)N(C)c2cccc(C(F)F)c2)n1` [Example 12, (2S,4S)-1-(3-Cyano-4,6-dimethylpyridin-2-yl)-N-(3-(difluoromethyl)phenyl)-4-hydroxy-N-methylpyrrolidine-2-carboxamide], the midpoint of inhibition, the IC50, lay at 710 nM.

With `Cc1cc(C(F)(F)F)cc(N2C(=O)N(CC3(O)CCN(C)C3)C[C@H]2C(=O)N(C)c2ccc(F)c(Cl)c2F)n1` (stereo partly drawn) [Example 223, (4S)—N-(3-Chloro-2,4-difluorophenyl)-1-((3-hydroxy-1-methylpyrrolidin-3-yl)methyl)-N-methyl-3-(6-methyl-4-(trifluoromethyl)pyridin-2-yl)-2-oxoimidazolidine-4-carboxamide], it took 8 nM to reach half-maximal inhibition (IC50).

`CCN(C(=O)[C@@H]1C[C@H](N(C)C2COC2)CN1c1cc(C(F)(F)F)cc(C)n1)c1ccc(F)c(F)c1` [Example 146, (2S,4S)-N-(3,4-Difluorophenyl)-N-ethyl-4-(methyl(oxetan-3-yl)amino)-1-(6-methyl-4-(trifluoromethyl)pyridin-2-yl)pyrrolidine-2-carboxamide] came in with an IC50 of 163 nM.

In turn, `CO[C@H]1C[C@@H](C(=O)N(C)c2cccc(C)c2)N(c2nc(C)cc(C(F)(F)F)c2C#N)C1` [Example 36, (2S,4S)-1-(3-Cyano-6-methyl-4-(trifluoromethyl)pyridin-2-yl)-4-methoxy-N-methyl-N-(m-tolyl)pyrrolidine-2-carboxamide] showed an IC50 of 48 nM.

With `Cc1cc(C(F)(F)F)cc(N2C(=O)N(CCCN(C)C)C[C@H]2C(=O)N(C)c2ccc(F)c(Cl)c2)n1` [Example 183, (S)-N-(3-Chloro-4-fluorophenyl)-1-(3-(dimethylamino)propyl)-N-methyl-3-(6-methyl-4-(trifluoromethyl)pyridin-2-yl)-2-oxoimidazolidine-4-carboxamide], the midpoint of inhibition, the IC50, lay at 24 nM.

Take `Cc1cc(C(F)(F)F)c(C#N)c(N2CCC[C@H]2C(=O)N(C)c2ccc3ccn(C)c3n2)n1` [Example 243, (S)-1-(3-Cyano-6-methyl-4-(trifluoromethyl)pyridin-2-yl)-N-methyl-N-(1-methyl-1H-pyrrolo[2,3-b]pyridin-6-yl)pyrrolidine-2-carboxamide]: the midpoint of inhibition, the IC50, lay at 39 nM.

`Cc1cc(C(F)(F)F)c(C#N)c(N2[C@@H](C)CC[C@H]2C(=O)N(C)c2ccc(F)c(Cl)c2)n1` [Example 242, (2S,5S)—N-(3-Chloro-4-fluorophenyl)-1-(3-cyano-6-methyl-4-(trifluoromethyl)pyridin-2-yl)-N,5-dimethylpyrrolidine-2-carboxamide] gave an IC50 of 311 nM.

`Cc1cc(C(F)(F)F)cc(N2C(=O)OC[C@H]2C(=O)N(C)c2ccc(F)c(Cl)c2F)n1` [Example 85, (S)—N-(3-Chloro-2,4-difluorophenyl)-N-methyl-3-(6-methyl-4-(trifluoromethyl)pyridin-2-yl)-2-oxooxazolidine-4-carboxamide] registered an IC50 of 5 nM.

`Cc1cc(C(F)(F)F)cc(N2C(=O)N(CCC(O)CO)C[C@H]2C(=O)N(C)c2ccc(F)c(Cl)c2)n1` (stereo partly drawn) [Example 232, (4S)—N-(3-Chloro-4-fluorophenyl)-1-(3,4-dihydroxybutyl)-N-methyl-3-(6-methyl-4-(trifluoromethyl)pyridin-2-yl)-2-oxoimidazolidine-4-carboxamide] displayed an IC50 of 15 nM.

For `CCN(C(=O)[C@@H]1C[C@@H](N(C)C)CN1c1nc(C)cc(C)c1C#N)c1cccc(C)c1` [Example 41, (2S,4R)-1-(3-Cyano-4,6-dimethylpyridin-2-yl)-4-(dimethylamino)-N-ethyl-N-(m-tolyl)pyrrolidine-2-carboxamide], the IC50 was 263 nM.

Molecule `Cc1cc(C(F)(F)F)cc(N2C(=O)N(CC3CNCCO3)C[C@H]2C(=O)N(C)c2ccc(F)c(Cl)c2F)n1` (stereo partly drawn) [Example 218, (4S)—N-(3-Chloro-2,4-difluorophenyl)-N-methyl-3-(6-methyl-4-(trifluoromethyl)pyridin-2-yl)-1-(morpholin-2-ylmethyl)-2-oxoimidazolidine-4-carboxamide] showed an IC50 of 16 nM.

In the case of `Cc1cccc(N(C)C(=O)[C@@H]2C[C@H](O)CN2c2cc(C)c(Cl)c(C)n2)c1` [Example 29, (2S,4S)-1-(5-Chloro-4,6-dimethylpyridin-2-yl)-4-hydroxy-N-methyl-N-(m-tolyl)pyrrolidine-2-carboxamide], it took 172 nM to reach half-maximal inhibition (IC50).

Molecule `Cc1cc(C(F)(F)F)cc(N2C(=O)N(CCN3CCNCC3)C[C@H]2C(=O)N(C)c2ccc(F)c(Cl)c2F)n1` [Example 192, (S)—N-(3-Chloro-2,4-difluorophenyl)-N-methyl-3-(6-methyl-4-(trifluoromethyl)pyridin-2-yl)-2-oxo-1-(2-(piperazin-1-yl)ethyl)imidazolidine-4-carboxamide] returned an IC50 of 9 nM.

In turn, `CCN(C(=O)[C@@H]1C[C@H](N2CCOC(CO)C2)CN1c1nc(C)cc(C(F)(F)F)c1C#N)c1cccc(Cl)c1` (stereo partly drawn) [Example 147, (2S,4S)-N-(3-Chlorophenyl)-1-(3-cyano-6-methyl-4-(trifluoromethyl)pyridin-2-yl)-N-ethyl-4-(2-(hydroxymethyl)morpholino)pyrrolidine-2-carboxamide] displayed an IC50 of 28 nM.

With `Cc1cc(C(F)(F)F)cc(N2C(=O)N(CC(O)CO)C[C@H]2C(=O)N(c2ccc(F)c(Cl)c2)C2CC2)n1` (stereo partly drawn) [Example 231, (4S)—N-(3-Chloro-4-fluorophenyl)-N-cyclopropyl-1-(2,3-dihydroxypropyl)-3-(6-methyl-4-(trifluoromethyl)pyridin-2-yl)-2-oxoimidazolidine-4-carboxamide], the IC50 is 94 nM.

In turn, `CCN(C(=O)[C@@H]1C[C@H](F)CN1c1nc(C)cc(C)c1C#N)c1ccc(F)c(F)c1` [Example 37, (2S,4S)-1-(3-Cyano-4,6-dimethylpyridin-2-yl)-N-(3,4-difluorophenyl)-N-ethyl-4-fluoropyrrolidine-2-carboxamide] showed an IC50 of 248 nM.

`CCN(C(=O)[C@@H]1C[C@H](N2CCOC(CO)C2)CN1c1nc(C)cc(C(F)(F)F)c1C#N)c1ccc(Cl)c(Cl)c1` (stereo partly drawn) [Example 148, (2S,4S)-1-(3-Cyano-6-methyl-4-(trifluoromethyl)pyridin-2-yl)-N-(3,4-dichlorophenyl)-N-ethyl-4-(2-(hydroxymethyl)-morpholino)pyrrolidine-2-carboxamide] gave an IC50 of 6 nM.

Turning to `Cc1cc(C(F)(F)F)cc(N2C(=O)N(CC3CN(C)C(=O)O3)C[C@H]2C(=O)N(C)c2ccc(F)c(Cl)c2F)n1` (single isomer, unassigned; isomer 2) [Example 230], the IC50 turned out to be 16 nM.

Staying with this test, now noted: read-out: Polθ IC50; full length N-His, C-term FLAG tagged Polθ, PicoGreen fluorescence, 12 point concentration response.
Consider `Cc1cc(C(F)(F)F)cc(N2C(=O)[C@@H](O)C[C@H]2C(=O)N(C)c2ccc(F)c(Cl)c2)n1` [Example 74, (2S,4S)—N-(3-Chloro-4-fluorophenyl)-4-hydroxy-N-methyl-1-(6-methyl-4-(trifluoromethyl)-pyridin-2-yl)-5-oxopyrrolidine-2-carboxamide], for which the concentration for half-maximal inhibition (IC50) worked out at 25 nM.

With `CCN(C(=O)[C@@H]1C[C@H](O)CN1c1nc(C)cc(C(F)(F)F)c1C#N)c1cccc(C)c1` [Example 22, (2S,4S)-1-(3-Cyano-6-methyl-4-(trifluoromethyl)pyridin-2-yl)-N-ethyl-4-hydroxy-N-(m-tolyl)-pyrrolidine-2-carboxamide], the IC50 came to 27 nM.

For the molecule `Cc1cc(C(F)(F)F)cc(N2C(=O)OC[C@H]2C(=O)N(C)c2cc(Cl)c(F)cc2F)n1` [Example 98, (S)-N-(5-Chloro-2,4-difluorophenyl)-N-methyl-3-(6-methyl-4-(trifluoromethyl)pyridin-2-yl)-2-oxooxazolidine-4-carboxamide], the IC50 turned out to be 32 nM.
